Assay: in vitro aerosolization performance from MDI, Next Generation Impactor (NGI) with HPLC
Assay type: physicochemical
Conditions: formulated with R-152a rather than R-134a
Description: Drug was weighed directly into standard aluminium 19 mL cans (C128, Presspart, Blackburn, UK). The cans were then crimped with a 50 μL valve (Bespak, Kings Lynn, UK). Finally, the propellant was filled into the cans through the valve using a manual Pamasol crimper/filler (Pamasol, Switzerland). High performance liquid chromatography (HPLC) was used to determine drug content following aerosolization studies (see below). The HPLC machine consisted of a pump, column oven, column coupled to a UV detector (all Agilent 1200, Wokingham, Berkshire, UK). A Hypersil BDS C18 column (Fisher, Loughborough, UK, 5 μm, 250×4.6 mm i.d.) was used for high-throughput analysis of samples. The in vitro aerosolization performance of the formulations was studied using a Next Generation Impactor (NGI, Copley Scientific, Nottingham UK), which was connected to a vacuum pump (GE Motors, NJ, USA). Prior to testing, the cups of the NGI system were coated with 1% v/v silicone oil in hexane to eliminate particle bounce. For each experiment, three actuations of the can were discharged into the NGI at 30 L·min^−1 as per pharmacopeia guidelines. […] The mass of drug deposited on each part of the NGI was determined by HPLC. This protocol was repeated three times for the can, following which, the fine particle dose (FPD) and fine particle fraction of the emitted dose (FPFED) were determined.

emitted dose, comparison in words: significantly (p<0.05) greater
Substance: salbutamol sulphate

Reference: US9114164B2 (MEXICHEM AMANCO HOLDING S.A. DE C.V., priority 2011, dated 2015)
